This is an account of results in US20070117770A1, “Human ribosomal DNA (rDNA) and ribosomal RNA (rRNA) nucleic acids and uses thereof” (Cylene Pharmaceuticals, Inc., priority 2005, published 2007).

Holding throughout (assay): Protein kinase inhibition assay
What all share (assay type): biochemical

In one assay the target is BTK(h) (Homo sapiens, UniProt Q06187). Conditions: read-out: percent residual activity of BTK(h). On the procedure: (§1) Certain compounds were tested for activity in protein kinase inhibition assays. All substrates were dissolved and diluted to working stocks in de-ionized water, apart from histone H1 (10× working stock in 20 mM MOPS pH 7.0), PDKtide (10× working stock in 50 mM Tris pH 7.0) ATF2 (which is typically stored at a 20× working stock in 50 mM Tris pH 7.5, 150 mM NaCl, 0.1 mM EGTA, 0.03% Brij-35, 50% glycerol, 1 mM benzamidine, 0.2 mM PMSF and 0.1% R-mercaptoethanol), KKLNRTLSFAEPG (SEQ ID NO:203) and RRRLSFAEPG (SEQ ID NO:204) (50 mM HEPES pH 7.4) and GGEEEEYFELVKKKK (SEQ ID NO:205) (20 mM MOPS pH 7.0). All kinases were pre-diluted to a 10× working concentration prior to addition into the assay. The composition of the dilution buffer for each kinase is detailed below.
Sequence of BTK(h) (Q06187 whole entry): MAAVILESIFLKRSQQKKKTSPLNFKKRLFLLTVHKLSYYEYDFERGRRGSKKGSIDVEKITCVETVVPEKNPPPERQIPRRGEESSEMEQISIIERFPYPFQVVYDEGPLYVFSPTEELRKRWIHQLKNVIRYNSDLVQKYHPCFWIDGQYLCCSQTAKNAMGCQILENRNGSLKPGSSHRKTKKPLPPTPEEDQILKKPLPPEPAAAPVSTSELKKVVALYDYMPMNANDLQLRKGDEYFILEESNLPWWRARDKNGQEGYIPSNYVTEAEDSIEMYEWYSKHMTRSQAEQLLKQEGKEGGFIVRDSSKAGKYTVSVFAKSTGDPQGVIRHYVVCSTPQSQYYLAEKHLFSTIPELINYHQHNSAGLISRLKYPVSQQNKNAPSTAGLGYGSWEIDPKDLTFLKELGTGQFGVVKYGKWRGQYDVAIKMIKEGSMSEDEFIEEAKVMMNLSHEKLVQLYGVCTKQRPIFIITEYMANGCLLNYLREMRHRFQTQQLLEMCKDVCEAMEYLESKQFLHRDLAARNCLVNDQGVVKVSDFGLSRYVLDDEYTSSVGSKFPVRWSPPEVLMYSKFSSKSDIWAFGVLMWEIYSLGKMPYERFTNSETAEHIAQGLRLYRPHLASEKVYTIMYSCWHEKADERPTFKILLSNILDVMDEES
In a final reaction volume of 25 μl, BTK (h) (5-10 mU) is incubated with 8 mM MOPS pH 7.0, 0.2 mM EDTA, 250 μM KVEKIGEGTYGVVYK (SEQ ID NO:211) (Cdc2 peptide), 10 mM MgAcetate and [gamma-33P-ATP] (specific activity approx. 500 cpm/pmol, concentration as required). The reaction is initiated by the addition of the MgATP mix. After incubation for 40 minutes at room temperature, the reaction is stopped by the addition of 5 μl of a 3% phosphoric acid solution. […]

The target in a further assay is MAPK1(h) (Homo sapiens, UniProt P27361). The conditions noted are these: read-out: percent residual activity of MAPK1(h). The protocol: as §1
Sequence of MAPK1(h) (P27361 whole entry): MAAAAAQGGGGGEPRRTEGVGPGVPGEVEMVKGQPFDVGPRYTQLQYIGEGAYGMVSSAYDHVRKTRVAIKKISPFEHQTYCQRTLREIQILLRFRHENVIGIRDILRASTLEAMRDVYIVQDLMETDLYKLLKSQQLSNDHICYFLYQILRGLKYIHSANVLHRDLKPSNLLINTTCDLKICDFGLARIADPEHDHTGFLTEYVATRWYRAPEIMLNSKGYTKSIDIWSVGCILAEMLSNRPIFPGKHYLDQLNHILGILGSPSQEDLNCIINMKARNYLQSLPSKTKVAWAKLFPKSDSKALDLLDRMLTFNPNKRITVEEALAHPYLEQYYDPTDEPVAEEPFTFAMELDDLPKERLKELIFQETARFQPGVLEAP
(§2) In a final reaction volume of 25 μl, MAPK1 (h) (5-10 mU) is incubated with 25 mM Tris pH 7.5, 0.02 mM EGTA, 250 μM peptide, 10 mM MgAcetate and [gamma-33P-ATP] (specific activity approx. 500 cpm/pmol, concentration as required). The reaction is initiated by the addition of the MgATP mix. After incubation for 40 minutes at room temperature, the reaction is stopped by the addition of 5 μl of a 3% phosphoric acid solution. 10 μl of the reaction is then spotted onto a P30 filtermat and washed three times for 5 minutes in 75 mM phosphoric acid and once in methanol prior to drying and scintillation counting.

The target of the next assay is Rsk2(h) (Homo sapiens, UniProt P51812). Conditions: read-out: percent residual activity of Rsk2(h). On the procedure: as §1
Sequence of Rsk2(h) (P51812 whole entry): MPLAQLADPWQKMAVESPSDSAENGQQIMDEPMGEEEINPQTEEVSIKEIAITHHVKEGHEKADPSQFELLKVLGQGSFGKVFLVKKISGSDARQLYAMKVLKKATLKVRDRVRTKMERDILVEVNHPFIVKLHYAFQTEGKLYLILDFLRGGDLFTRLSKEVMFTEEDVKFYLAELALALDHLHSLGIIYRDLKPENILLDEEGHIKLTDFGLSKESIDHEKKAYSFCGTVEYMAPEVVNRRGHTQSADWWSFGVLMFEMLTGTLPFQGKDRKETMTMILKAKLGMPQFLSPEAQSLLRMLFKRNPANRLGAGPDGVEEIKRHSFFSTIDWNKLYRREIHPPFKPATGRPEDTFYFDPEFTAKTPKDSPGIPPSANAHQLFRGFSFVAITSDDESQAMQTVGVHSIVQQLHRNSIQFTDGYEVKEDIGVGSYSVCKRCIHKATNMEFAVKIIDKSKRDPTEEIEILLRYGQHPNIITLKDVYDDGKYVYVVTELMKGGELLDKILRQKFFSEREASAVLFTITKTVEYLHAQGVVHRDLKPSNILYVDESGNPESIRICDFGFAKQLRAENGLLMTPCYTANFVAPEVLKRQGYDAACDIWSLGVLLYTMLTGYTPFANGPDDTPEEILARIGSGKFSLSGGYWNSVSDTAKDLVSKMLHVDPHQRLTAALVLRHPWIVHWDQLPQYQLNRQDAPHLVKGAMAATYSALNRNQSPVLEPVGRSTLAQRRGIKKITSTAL
as §2, with “μl, Rsk2” for “μl, MAPK1”, “with 8” for “with 25”, “mM MOPS” for “mM Tris”, “pH 7.0, 0.2” for “pH 7.5, 0.02”, “mM EDTA, 30” for “mM EGTA, 250”, “μM KKKNRTLSVA (SEQ ID NO:212),” for “μM peptide,”

Another assay deals with IKKβ(h) (Homo sapiens, UniProt O14920). The conditions noted are these: read-out: percent residual activity of IKKβ(h). The protocol:
as §1
as §2, with “μl, IKKβ” for “μl, MAPK1”, “with 8” for “with 25”, “mM MOPS” for “mM Tris”, “pH 7.0, 0.2” for “pH 7.5, 0.02”, “mM EDTA, 100” for “mM EGTA, 250”

The next assay addresses Lyn(m) (Mus musculus, UniProt P25911). The conditions noted are these: read-out: percent residual activity of Lyn(m). The protocol: as §1
In a final reaction volume of 25 μl, Lyn (m) (5-10 mU) is incubated with 50 mM Tris pH 7.5, 0.1 mM EGTA, 0.1 mM Na3VO4, 0.1% R-mercaptoethanol, 0.1 mg/ml poly(Glu, Tyr) 4:1, 10 mM MgAcetate and [gamma-33P-ATP] (specific activity approx. 500 cpm/pmol, concentration as required). The reaction is initiated by the addition of the MgATP mix. After incubation for 40 minutes at room temperature, the reaction is stopped by the addition of 5 μl of a 3% phosphoric acid solution. […]

The target of a further assay is MINK(h) (Homo sapiens, UniProt Q8N4C8). The conditions noted are these: read-out: percent residual activity of MINK(h). The protocol: as §1
Sequence of MINK(h) (Q8N4C8 whole entry): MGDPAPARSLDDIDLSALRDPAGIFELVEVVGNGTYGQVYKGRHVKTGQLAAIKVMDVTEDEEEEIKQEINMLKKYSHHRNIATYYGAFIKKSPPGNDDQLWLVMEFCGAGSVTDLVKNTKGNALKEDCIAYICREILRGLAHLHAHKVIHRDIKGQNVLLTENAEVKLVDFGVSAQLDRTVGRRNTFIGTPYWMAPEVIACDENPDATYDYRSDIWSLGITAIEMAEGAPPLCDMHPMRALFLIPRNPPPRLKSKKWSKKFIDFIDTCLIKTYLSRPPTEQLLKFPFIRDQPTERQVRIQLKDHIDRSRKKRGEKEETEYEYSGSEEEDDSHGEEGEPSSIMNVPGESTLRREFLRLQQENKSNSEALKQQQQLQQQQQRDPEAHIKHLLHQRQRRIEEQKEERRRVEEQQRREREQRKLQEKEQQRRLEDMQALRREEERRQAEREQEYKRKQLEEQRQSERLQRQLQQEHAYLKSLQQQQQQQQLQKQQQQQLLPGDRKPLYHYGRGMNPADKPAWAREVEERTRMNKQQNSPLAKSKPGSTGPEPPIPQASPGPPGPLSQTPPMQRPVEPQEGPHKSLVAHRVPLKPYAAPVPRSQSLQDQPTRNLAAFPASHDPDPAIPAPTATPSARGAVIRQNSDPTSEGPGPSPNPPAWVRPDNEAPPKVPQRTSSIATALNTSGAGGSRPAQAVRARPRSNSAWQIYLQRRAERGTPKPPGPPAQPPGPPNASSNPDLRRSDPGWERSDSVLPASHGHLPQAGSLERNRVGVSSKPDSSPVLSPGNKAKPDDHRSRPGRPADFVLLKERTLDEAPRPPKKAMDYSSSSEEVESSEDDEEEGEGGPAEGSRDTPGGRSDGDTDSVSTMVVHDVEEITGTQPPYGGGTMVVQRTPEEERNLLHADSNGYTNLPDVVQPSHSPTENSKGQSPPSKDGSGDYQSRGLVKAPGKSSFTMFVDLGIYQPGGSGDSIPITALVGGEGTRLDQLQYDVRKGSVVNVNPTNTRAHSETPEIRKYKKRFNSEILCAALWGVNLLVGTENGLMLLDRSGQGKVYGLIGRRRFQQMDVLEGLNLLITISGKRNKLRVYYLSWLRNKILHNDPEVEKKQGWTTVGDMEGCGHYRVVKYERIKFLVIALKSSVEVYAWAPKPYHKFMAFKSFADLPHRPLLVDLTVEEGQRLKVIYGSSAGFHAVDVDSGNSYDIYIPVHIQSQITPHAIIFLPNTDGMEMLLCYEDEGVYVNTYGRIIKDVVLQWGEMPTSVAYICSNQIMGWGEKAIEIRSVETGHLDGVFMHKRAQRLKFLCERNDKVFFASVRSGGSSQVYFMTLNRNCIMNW
as §2, with “μl, MINK” for “μl, MAPK1”, “with 8” for “with 25”, “mM MOPS” for “mM Tris”, “pH 7.0, 0.2” for “pH 7.5, 0.02”, “mM EDTA, 0.33 mg/ml myelin basic protein,” for “mM EGTA, 250 μM peptide,”

Sequence of IKKβ(h) (O14920 whole entry): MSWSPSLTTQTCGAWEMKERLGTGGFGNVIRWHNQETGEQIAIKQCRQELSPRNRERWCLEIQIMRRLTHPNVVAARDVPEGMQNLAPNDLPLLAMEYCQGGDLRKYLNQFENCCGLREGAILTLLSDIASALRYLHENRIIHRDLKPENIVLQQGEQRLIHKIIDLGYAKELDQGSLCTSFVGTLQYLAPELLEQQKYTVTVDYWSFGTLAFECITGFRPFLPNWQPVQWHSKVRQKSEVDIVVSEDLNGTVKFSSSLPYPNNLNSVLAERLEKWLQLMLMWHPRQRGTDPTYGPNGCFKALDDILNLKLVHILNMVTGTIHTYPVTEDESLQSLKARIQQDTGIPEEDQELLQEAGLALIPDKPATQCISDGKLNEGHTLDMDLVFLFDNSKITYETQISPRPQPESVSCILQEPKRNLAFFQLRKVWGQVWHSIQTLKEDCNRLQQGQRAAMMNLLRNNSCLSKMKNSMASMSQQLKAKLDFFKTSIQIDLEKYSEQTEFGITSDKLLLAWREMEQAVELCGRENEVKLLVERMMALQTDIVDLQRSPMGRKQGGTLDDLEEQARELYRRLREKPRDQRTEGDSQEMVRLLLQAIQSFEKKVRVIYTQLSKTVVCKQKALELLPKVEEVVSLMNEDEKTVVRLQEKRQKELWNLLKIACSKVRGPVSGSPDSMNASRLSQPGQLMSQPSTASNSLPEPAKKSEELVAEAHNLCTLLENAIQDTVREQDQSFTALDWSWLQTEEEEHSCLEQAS
Sequence of Lyn(m) (P25911 whole entry): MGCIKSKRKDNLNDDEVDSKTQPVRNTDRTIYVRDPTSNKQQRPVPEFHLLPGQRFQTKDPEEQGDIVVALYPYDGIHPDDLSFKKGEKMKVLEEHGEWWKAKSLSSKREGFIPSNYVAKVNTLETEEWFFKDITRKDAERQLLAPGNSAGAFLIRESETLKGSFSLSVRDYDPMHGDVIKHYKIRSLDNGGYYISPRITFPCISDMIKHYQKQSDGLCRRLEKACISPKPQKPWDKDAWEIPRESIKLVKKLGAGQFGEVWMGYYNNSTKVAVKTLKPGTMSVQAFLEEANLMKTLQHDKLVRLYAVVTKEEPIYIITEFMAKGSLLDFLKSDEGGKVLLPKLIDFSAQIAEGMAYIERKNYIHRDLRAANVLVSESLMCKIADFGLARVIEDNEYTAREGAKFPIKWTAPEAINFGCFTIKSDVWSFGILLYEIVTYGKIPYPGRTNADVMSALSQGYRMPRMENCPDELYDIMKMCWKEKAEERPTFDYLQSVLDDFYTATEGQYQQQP

On to `CN1CCCC1CCNC(=O)c1cn2c3c(c(N4CCC(c5cnccn5)C4)c(F)cc3c1=O)Oc1cc3ccccc3cc1-2` (stereo not drawn) [Compound A-1], for which the remaining activity at 2.5 µM at BTK(h) came to 60%; at MAPK1(h) it was 92%; at Rsk2(h), 60%; on IKKβ(h), 56%; at Lyn(m), 89%; on MINK(h) it was 72%.
Consider `CC(=O)N1CCN(c2ccc3c(=O)c(C(=O)NCCN4CCCC4)c4n(C)c5ccccc5n4c3n2)CC1` [Compound B-1], for which the remaining activity at 2.5 µM worked out at 101% on BTK(h); 94% on MAPK1(h); 106% at Rsk2(h); 105% on IKKβ(h); 106% at Lyn(m); 97% at MINK(h).
